Experimental findings from patent US11192967B1, “Thermosetting polyimides derived from resveratrol” (The United States of America, as represented by the …, priority 2017, dated 2021) are described below.

The nature of one data set: Mutagenicity (Ames test). Type of data set: cell-based. The protocol: (§1) Toxicity Testing. In vitro toxicity tests were conducted for compounds 1-3.
A general note: In the Ames test, an excess of revertant colonies over the control signals mutagenicity.

A further data set can be described thus: Aquatic toxicity. To be noted: for Aquatic toxicity (in words): 1 and 2 compared to MDA. Here is the method:
as §1

The next data set in a line: LD50 (toxicity testing). To be noted: listed among in vitro toxicity test results.
Another data set is described as follows: In vitro cytotoxicity. Type of data set: cell-based. To be noted: concentration at which cytotoxicity was observed; solubility limit 10 μg/mL for 3. Here is the method: as §1

Where two headings read alike, the source gives them in different places. Where only a bound is given, the exact number is not on record here.

For the compound `Nc1ccc(Cc2ccc(N)cc2)cc1` [MDA, Methylene dianiline, reference compound], in “Mutagenicity (Ames test)”, the “Mutagenicity (Ames test)” value is given as “Mutagenic”. In addition, the “Aquatic Toxicity” value in “Aquatic toxicity” is listed as 14.30 mg/L. Besides, in “LD50 (toxicity testing)”, the LD50 amounted to 944 mg/kg.
As to `Nc1ccc(/C=C/c2cc(N)cc(N)c2)cc1` [compound 1, (E)-5-(4-aminostyryl)benzene-1,3-diamine], in the data set “Mutagenicity (Ames test)”, the “Mutagenicity (Ames test)” value is “Mutagenic”. Moreover, the Cytotoxicity result in the data set “In vitro cytotoxicity” is recorded as “>/=3.2 μg/mL”. Moreover, in “Aquatic toxicity”, the “Aquatic Toxicity” value was found to be 1153 mg/L and the “Aquatic toxicity (in words)” value was “substantially reduced aquatic toxicity compared to MDA”. For the same compound, the LD50 in the data set “LD50 (toxicity testing)” (read-out: LD50) amounted to 301 mg/kg.
The corresponding values for `Nc1ccc(CCc2cc(N)cc(N)c2)cc1` [compound 2] are “Mutagenic”, “>/=3.2 μg/mL”, 52.7 mg/L, “substantially reduced aquatic toxicity compared to MDA” and 820 mg/kg.
For `Nc1ccc(Oc2ccc(CCc3cc(Oc4ccc(N)cc4)cc(Oc4ccc(N)cc4)c3)cc2)cc1` [compound 3], the “Mutagenicity (Ames test)” value in the data set “Mutagenicity (Ames test)” is “Not mutagenic”. Moreover, the “Mutagenicity (Ames test)” value in “Mutagenicity (Ames test)” (listed as Compound 3) is given as “not mutagenic”. In addition, the Cytotoxicity result in the data set “In vitro cytotoxicity” is “None observed”. In “Aquatic toxicity”, the “Aquatic Toxicity” value was more than 2000 mg/L and the “Aquatic toxicity (in words)” value is “remarkably low aquatic toxicity”. In the data set “LD50 (toxicity testing)” (read-out: LD50), the LD50 came out at 568 mg/kg.

As usually defined, the LD50 is the dose at which mortality reaches 50%.
